This note sets out measurements from a melting point compilation (Tetko et al.; mined from patent text by program, amines drawn as free bases though some values may be those of a salt).

In general, melting point refers to the temperature, or range, at which the solid turns liquid.

Each structure is given as a SMILES string.

`CN(C)S(=O)(=O)CS(=O)(=O)c1ccccc1` displayed a melting point of 102 to 103 °C.
With `COC(=O)C1=C(C)NC(C)=C(P2(=O)OCCCO2)C1c1ccccc1[N+](=O)[O-]` (stereo unspecified) the figure was 249 to 251 °C.
With `CON(C)S(=O)(=O)c1ccccc1S(N)(=O)=O` the figure was 136 to 140 °C.
With `CSCC(O)CN1C(=O)C(CCC(=O)O)(NC(=O)c2ccc(Cl)c(Cl)c2)c2ccccc21` (stereo unspecified) the figure was 168 to 170 °C; with `COC(=O)C1(Oc2cc(-n3c(=O)cc(C(F)(F)F)n(C)c3=O)c(F)cc2Cl)CC=CNC1=O` (stereo unspecified), 82.4 °C.
The compound `CC(=O)c1ccc(CC(C)C)c(C#N)c1` returned a melting point of 71 to 72 °C.
As for `CC(C)(CC1CCCC1)NC(=O)CN1C(=O)c2ccccc2C1=O`, the figure is 159 to 160 °C.
As for `CCCc1nn(C)c2c(=O)n(CCOc3cccc(OC(C)(C)C(=O)O)c3)c(C)nc12`, the figure is 140 to 142 °C; as for `CC(C)(C)OC(=O)NN=C1CCN(C(=O)OC(C)(C)C)CC1`, 172 to 174 °C; as for `CNC(=O)C1=CC(CF)(CF)Oc2ccc(C(F)(F)C(F)(F)F)cc21`, 127 to 128 °C.
In turn, `O=C(N[C@H](Cc1ccccc1)C(=O)O)OCc1ccc2nc(-c3ccccc3)ccc2c1` showed a melting point of 190 to 191 °C.
In turn, `Cc1noc(NS(=O)(=O)c2ccccc2-c2ccc(-c3ncco3)cc2COc2ccc(-c3ccccc3)cc2)c1C` returned a melting point of 95 to 105 °C.
As for `CCCCOc1c(C#N)c(C#N)c(OCCCC)c2ccccc12`, the figure is 69 to 70 °C; as for `COC(=O)c1cc(-c2ccc(S(C)(=O)=O)cc2)n(-c2ccccc2)n1`, 190 to 193 °C.
With `CS(=O)(=O)c1ccc(-c2cc3c(cc2Cc2cc(F)cc(F)c2)OCCO3)cc1` the figure was 160 to 162 °C; with `CCON=C(C(C)=NOCc1ccccc1C(=NOC)C(=O)NC)c1ccc(OCc2cccc(C(F)(F)F)c2)cc1`, 130 to 132 °C.
With `CC(C)(Oc1ccc(CC(=O)Nc2ccc(C(F)(F)F)cc2)cc1)C(=O)O` the figure was 197 °C; with `O=C(Oc1ccccc1)c1cc([N+](=O)[O-])c2ccccc2c1O`, 157 °C; with `O=C1c2ccccc2C(=O)N1CCCCc1ccccc1`, 87 to 90 °C.
`OC(c1ccc(Cl)cc1)(c1ccc(Cl)cc1)c1ccns1`: the melting point was 118 to 120 °C.
As for `COc1ccccc1-n1c(CSc2ncnc3[nH]cnc23)nc2cccc(Cl)c2c1=O`, the figure is 237 °C; as for `Cc1c(-c2ccc(C(=O)O)cc2)ccc(-c2ccccc2)c1-c1ccc2c(c1)C(C)(C)CCC2(C)C`, 130 to 132 °C.
Compound `CCN1C(=O)C(C)N(c2ccc(Oc3ccccc3)cc2)C1=S` (stereo unspecified) showed a melting point of 102 °C.
With `CCOC(=O)C(=Cc1cccn2cc(Br)nc12)N=[N+]=[N-]`, the melting point lay in the range of 149 to 151 °C.
With `CN(C)Cc1ccc(SC2CCN(C(=O)OCc3ccccc3)CC2)cc1` the figure was 144 °C; with `CC(Cc1ccc(OCc2ccccc2)cc1)NCC(O)c1cccc(Cl)c1` (stereo unspecified), 95 to 99 °C; with `O=C1NCCN1S(=O)(=O)c1ccc(F)cc1`, 183 to 185 °C.
As for `O=[N+]([O-])c1ccc(O)c(COCCO)c1`, the figure is 132 °C.
With `CC(=O)NC1CCc2c([nH]c3ccccc23)C1` (stereo unspecified) the figure was 203 to 206 °C.
`Cc1c(C)n(CC=Cc2ccccc2)c2c(OCc3ccc(F)cc3)nncc12` displayed a melting point of 124 to 126 °C.
As for `N#Cc1cnc2cc(-c3cncc(CN4CCOCC4)c3)ccc2c1Nc1ccc(Oc2ccccc2)cc1`, the figure is 185 to 187 °C.
As for `CC(Oc1ccc(Cl)c(Cl)c1)c1ccnc2ncnn12` (stereo unspecified), the figure is 146 to 149 °C; as for `CCOC(=O)C1=NNc2ccc(-c3ccc(Cl)cc3)cc2C1`, 254 to 256 °C.
With `Cn1c(=O)cc(-c2cccc(Cl)c2)c2cc(C(=O)c3ccc(I)cc3)ccc21` the figure was 184 °C; with `CCCCSc1cc(C(=O)OCC#N)cc(S(N)(=O)=O)c1Cc1ccccc1`, 112 to 114 °C.
`OCCCCOc1ccc2ccccc2c1` had a melting point of 66.5 to 67.5 °C.
As for `CS(=O)(=O)Nc1cc2occ(C(N)=O)c(=O)c2cc1Oc1ccccc1`, the figure is above 250 °C.
With `Nc1c(C(F)(F)F)cnn1-c1c(Cl)cc(C(F)(F)F)cc1Cl` the figure was 106 °C; with `C=C(Nc1nc(-c2ccccc2)c(-c2nc3ccccc3c(=O)n2-c2ccccc2Cl)s1)c1ccco1`, above 275 °C; with `O=[N+]([O-])c1cnn2c1-c1ccccc1NC2c1ccccc1O` (stereo unspecified), 235 to 237 °C.
`O=C(O)CCCC=Cc1nn(-c2ccc(F)cc2)c2c1CCC2` returned a melting point of 90 to 91 °C.
As for `CC(C)(C)OC(=O)NC1Cc2ccccc2C1Oc1ccccc1` (stereo unspecified), the figure is 99 to 101 °C; as for `CCC1(C)CC(=O)C(C(=O)Nc2ccc(C(F)(F)F)cc2)C(=O)C1` (stereo unspecified), 99 to 100 °C; as for `CCN(CC)C(=O)c1nc(-c2c(Cl)cc(C(F)(F)F)cc2Cl)[nH]c1C#N`, 195 to 197 °C.
As for `COC(=O)CC1c2ccccc2C(=O)N1c1ccc(Cl)cn1` (stereo unspecified), the figure is 110 to 111 °C.
With `CCCCCS(=O)(=O)NC(=O)/C=C/c1cc(OCC2(C)COC2)nn1Cc1ccc(C(F)(F)F)cc1Cl` the figure was 144 to 147 °C.
The compound `O=C(N1CCCC(c2cccc3[nH]ccc23)C1)C(F)(F)F` (stereo unspecified) showed a melting point of 170 °C.
With `Cc1nc(C#CCCc2nc3ccccc3o2)cn1C` the figure was 117 to 119 °C.
The compound `CC(C)[C@H](C[C@H](O)[C@H](C)NC(=O)OC(C)(C)C)C(=O)NCCN` had a melting point of 55 to 62 °C.
Compound `COc1cc(N)c(Cl)cc1C(=O)NN1CCN(Cc2ccsc2)CC1` showed a melting point of 223 to 224 °C.
With `CC(C)(C)c1cccc(S(=O)(=O)n2c(Cc3ccc(C(=O)NS(=O)(=O)c4ccccc4)cc3)cc3cc(C(F)(F)F)ccc32)c1` the figure was 99 °C.
With `Cc1c(C(=O)Nc2ccc(SCCCO)c(C#N)c2)cnn1-c1ccc(Cl)cc1` the figure was 165 °C; with `Cc1c(NC(=O)CC(C)(C)C)c(C)c(C(C)(C)O)c2c1C(c1ccc(C(C)C)cc1)CO2` (stereo unspecified), 133 to 134 °C; with `O=C1c2cc(F)ccc2-n2cnc(C(=O)n3ccnc3)c2[C@@H]2CCCN12`, 206 to 207 °C.
As for `Cn1cnnc1C(c1ccc(I)cc1)c1cc2c3c(c1)c(-c1cccc(Cl)c1)cc(=O)n3CC2` (stereo unspecified), the figure is 194 °C.
`CC(C)(C)OC(=O)N1CCC(COc2ccc(C=O)cc2)CC1`: the melting point lay within 116 to 117 °C.
As for `c1ccc2c(c1)Cc1cc(C3(Cn4ccnc4)OCCO3)ccc1-2`, the figure is 163 to 166 °C; as for `CCOC(=O)CCC(C#N)(c1ccc(C(F)(F)F)cc1)N1CCOCC1` (stereo unspecified), 96 to 97 °C.
As for `CC(=NNC(=N)N)c1sc(-c2ccc(-c3ccccc3)cc2)nc1C`, the figure is 278 to 280 °C.
As for `COc1ccc(NC(=O)c2ccc(-c3ccc(-c4noc(C)n4)cc3C)cc2)cc1C=CCN(C)C`, the figure is 220 to 221 °C; as for `O=c1ccn2c(c1O)C(c1ccc(Br)cc1)OCC2` (stereo unspecified), 200 to 212 °C.
